System: participants with SSc-RP
Test: Frequency of weekly RP attacks (all attacks; primary efficacy endpoint)
Type: in vivo, human
Excerpt: Percent change from baseline evaluation for frequency of weekly RP attacks were or will be used as the primary efficacy variable. The sponsor-developed participant-informed diary will be used to record data. Frequency of weekly RP attacks is defined as the total number of RP attacks divided by the number of days with available diary data within the last 7 days of each dosing period then multiplied by 7. Total number of RP attacks during the last 7 days of screening period divided by the number of days with available data then multiplied by 7 will be used as baseline for the analysis of all periods. The variable will be calculated as follows:
Percentage change={(weekly RP attacks for the last 7 days of each dosing period−Baseline weekly RP attacks)/Baseline weekly RP attacks}*100%.
Absolute change=weekly RP attacks for the last 7 days of each dosing period−Baseline weekly RP attacks
Percent change from baseline evaluation for frequency of weekly RP attacks was and will be the primary efficacy endpoint. Frequency of weekly RP attacks is defined as the total number of RP attacks divided by the number of days with available diary data within the last 7 days of each dosing period then multiplied by 7. Total number of RP attacks during the last 7 days of screening period divided by the number of days with available data then multiplied by 7 will be used as baseline for the analysis of all periods.
Percent change from baseline evaluation for frequency of weekly RP attacks were the primary efficacy endpoint. Data collected in the last 7 days of each dosing period were used for this analysis. Screening assessments were used as baseline for the analysis of all periods. No multiple comparison adjustment were used to control alpha for the multiple comparisons. Mixed effects model were used for analysis of the primary endpoint according to the crossover design. Other efficacy endpoints of continuous variables were analyzed using similar methodology. For nominal data, chi-square tests were applied. Generalized Estimating Equations method were used, as appropriate, for adjusting for potential confounding factors. In addition, the final analysis assessed whether in this study of severe Raynaud's disease participants, the minimally important difference, previously concluded of 14-15 points on the 100 point RCS scale had been achieved in the cilnidipine dose group. It also recorded the percentage of participants achieving a PASS (34 point difference from baseline on a 0-100 VAS) in each treatment group.

[1] = Tadalafil 5 mg, n=1, Excluding Outliers, by Baseline RCS, second subgroup, ITT Part A
[2] = all attacks, excluding outliers, cilnidipine 10 mg, tadalafil 5 mg daily
[3] = all attacks, by baseline RCS, second subgroup, cilnidipine 10 mg, tadalafil 5 mg daily
[4] = all attacks, cilnidipine 10 mg, tadalafil 5 mg daily

`CN1CC(=O)N2[C@H](c3ccc4c(c3)OCO4)c3[nH]c4ccccc4c3C[C@@H]2C1=O` [Tadalafil, tadalafil] was tested, and the “Weekly RP Attacks (All Attacks) Change from Baseline, Mean” value [1] was 6.00, the “Weekly RP Attacks (All Attacks) Change from Baseline, Median” value [1] was 6.00 and the “Weekly RP Attacks (All Attacks) Percent Change from Baseline, Mean” value [1] was 46.15%. For the same compound, the “Weekly RP Attacks (All Attacks) Percent Change from Baseline, Median” value [1] was 46.15%, the “Weekly RP Attacks (All Attacks), Mean” value [1] was 19.00 and the “Weekly RP Attacks (All Attacks), Median” value [1] was 19.00. The “Weekly RP Attacks Change from Baseline, Max” value (“Weekly RP Attacks Change … Max” below) [2] was 6.0, 6.0, the “Weekly RP Attacks Change from Baseline, Mean (SD)” value [2] was 6.00 and the “Weekly RP Attacks Change from Baseline, Median” value [2] was 6.00. The “Weekly RP Attacks Change from Baseline, Min” value (“Weekly RP Attacks Change … Min” below) [2] was 6.0, 6.0, the “Weekly RP Attacks Change from Baseline, Q1” value (“Weekly RP Attacks Change … Q1” below) [2] was 6.00, 6.00 and the “Weekly RP Attacks Change from Baseline, Q3” value (shortened to “Weekly RP Attacks Change … Q3”) [2] was 6.00, 6.00. The “Weekly RP Attacks Percent Change from Baseline, Max” value [2] was 46.2, 46.2%, the “Weekly RP Attacks Percent Change from Baseline, Mean (SD)” value [2] was 46.15% and the “Weekly RP Attacks Percent Change from Baseline, Median” value [2] was 46.15%. The “Weekly RP Attacks Percent Change from Baseline, Min” value [2] was 46.2, 46.2%, the “Weekly RP Attacks Percent Change from Baseline, Q1” value [2] was 46.15, 46.15% and the “Weekly RP Attacks Percent Change from Baseline, Q3” value [2] was 46.15, 46.15%. The “Weekly RP Attacks, Max” value [2] was 19.0, 19.0, the “Weekly RP Attacks, Mean (SD)” value [2] was 19.00 and the “Weekly RP Attacks, Median” value [2] was 19.00. For the same compound, the “Weekly RP Attacks, Min” value [2] was 19.0, 19.0, the “Weekly RP Attacks, Q1” value [2] was 19.00, 19.00 and the “Weekly RP Attacks, Q3” value [2] was 19.00, 19.00. The “Weekly RP Attacks Change … Max” value [3] was 6.0, the “Weekly RP Attacks Change from Baseline, Mean” value [3] was 3.00 and the “Weekly RP Attacks Change from Baseline, Median” value [3] was 3.00. For the same compound, the “Weekly RP Attacks Change … Min” value [3] was 0.0, the “Weekly RP Attacks Change … Q1” value [3] was 0.00 and the “Weekly RP Attacks Change … Q3” value [3] was 6.00. The “Weekly RP Attacks Percent Change from Baseline, Max” value [3] was 46.2%, the “Weekly RP Attacks Percent Change from Baseline, Mean” value [3] was 23.08% and the “Weekly RP Attacks Percent Change from Baseline, Median” value [3] was 23.08%. The “Weekly RP Attacks Percent Change from Baseline, Min” value [3] was 0.0%, the “Weekly RP Attacks Percent Change from Baseline, Q1” value [3] was 0.00% and the “Weekly RP Attacks Percent Change from Baseline, Q3” value [3] was 46.15%. The “Weekly RP Attacks, Max” value [3] was 19.0, the “Weekly RP Attacks, Mean” value [3] was 13.00 and the “Weekly RP Attacks, Median” value [3] was 13.00. For the same compound, the “Weekly RP Attacks, Min” value [3] was 7.0, the “Weekly RP Attacks, Q1” value [3] was 7.00 and the “Weekly RP Attacks, Q3” value [3] was 19.00. The “Weekly RP Attacks Change … Max” value [4] was 6.0, the “Weekly RP Attacks Change from Baseline, Mean (SD)” value [4] was 3.00 (4.243) and the “Weekly RP Attacks Change from Baseline, Median” value [4] was 3.00. The “Weekly RP Attacks Change … Min” value [4] was 0.0, the “Weekly RP Attacks Change … Q1” value [4] was 0.00 and the “Weekly RP Attacks Change … Q3” value [4] was 6.00. The “Weekly RP Attacks Percent Change from Baseline, Max” value [4] was 46.2%, the “Weekly RP Attacks Percent Change from Baseline, Mean (SD)” value [4] was 23.08 (32.636) Percent and the “Weekly RP Attacks Percent Change from Baseline, Median” value [4] was 23.08%. The “Weekly RP Attacks Percent Change from Baseline, Min” value [4] was 0.0%, the “Weekly RP Attacks Percent Change from Baseline, Q1” value [4] was 0.00% and the “Weekly RP Attacks Percent Change from Baseline, Q3” value [4] was 46.15%. The “Weekly RP Attacks, Max” value [4] was 19.0, the “Weekly RP Attacks, Mean (SD)” value [4] was 13.00 (8.485) and the “Weekly RP Attacks, Median” value [4] was 13.00. For the same compound, the “Weekly RP Attacks, Min” value [4] was 7.0, the “Weekly RP Attacks, Q1” value [4] was 7.00 and the “Weekly RP Attacks, Q3” value [4] was 19.00.
